Results as given in paper PMC4588179, “Antifungal Activity of 14-Helical β-Peptides against Planktonic Cells and Biofilms of Candida Species” (Pharmaceuticals, 2015).

Tests used:
[1] = RP-HPLC retention time as measure of β-peptide hydrophobicity; assay type: physicochemical; details: chromatographic, analytical RP-HPLC, C18 (Waters X-bridge, 4.6 mm × 250 mm), gradient 20%–80% CH3CN in water with 0.1% TFA over 5–35 min, 1 mL/minute, 0.5 to 1 mg/mL, 50 µL injected; mean ± standard deviation of triplicate measurements
From the text: β-peptides were produced by microwave-assisted Fmoc synthesis at 20−40 μmol scales and purified by RP-HPLC using a C18 column. MALDI mass spectrometry was used to validate the mass of each peptide as described previously. Retention times determined by C18 RP-HPLC were used as a measure of the relative hydrophobicity of the β-peptides (Table 1). This approach has been used previously by our group and others to assess the relative hydrophobicity of different peptide structures. Preliminary antifungal activity and mammalian toxicity evaluation were reported previously for β-peptides 1–16 as planktonic MIC against C. albicans and percent hemolysis at the MIC, respectively.
Hydrophobicity of 14-helical β-peptides was characterized by measuring retention times with an analytical RP-HPLC using a C18 column (Waters, X-bridge, column dimensions 4.6 mm × 250 mm, Milford, MA, USA). The β-peptide solutions (0.5 to 1 mg/mL, 50 µL) were injected into the HPLC at a flow rate of 1 mL/minute. Retention time was characterized in triplicate with a gradient of 20%–80% CH3CN in water containing 0.1% TFA over 5–35 min.

[2] = test system: human red blood cells (hRBCs); experiment: Hemolysis of human red blood cells; assay type: cell-based; details: red cells of human
Method: Table S1. Hemolysis of β-peptide 1-16, concentration of β-peptid e needed for 50% lysis of human red blood cells (hRBCs)
Peptide # Peptide Concentration at 50% Hemolysis a (HC50, µg/mL) […]
a Hemolysis assays were perfor med as previously indicated in Lee, M.R. et al., ACS Chem. Biol. (2014). Briefly, equal volumes of 2-fold dilutions of β-peptides in tris-buffered saline (TBS) were incubated with hRBCs for an hour at 37 °C. Supernatants were transferred to a new plate and absorbance was measured at 405 nm.
% hemolysis was calculated relative to positive lysis control and the concentration of peptide needed for 50% hemolysis was recorded as HC50 for that peptide. Values reported are average measurements from three independent experiments of duplicates each and the error denoted is the standard deviation. Concentration dependent hemolysis graphs can be found in Lee, M.R. et al., ACS Chem. Biol. (2014).

[3] = test system: C. albicans SC5314 biofilm formation; experiment: Biofilm formation in the presence of β-peptides, XTT; assay type: cell-based, Candida albicans; details: 10^6 cells/mL incubated with 2-fold dilutions of β-peptide, 37 °C, 48 h, washed, 10% or less metabolic activity vs untreated control
Method: C. albicans, C. glabrata, C. tropicalis, and C. parapsilosis biofilm formation in the presence of β-peptide was evaluated using a procedure used previously. Briefly, 100 μL of overnight cultures of C. albicans SC5314, C. glabrata, C. parapsilosis, and C. tropicalis adjusted to 2 × 10^6 cells/mL was added to 100 μL of two-fold serially diluted β-peptide in a 96-well plates. Peptide-free controls and cell and peptide-free controls were included for each peptide assayed and the plates were incubated at 37 °C for 48 h. After 48 h, biofilms were washed with PBS to remove non-adherent cells and the metabolic activity of biofilms grown in the presence of β-peptide was determined using XTT.
For evaluation of metabolic activities of planktonic cells and biofilms in susceptibility testing in 96-well plates, 100 μL of XTT solution was added to every well and plates were incubated at 37 °C in the dark for 1.5 h for C. albicans and 2.5 h for C. glabrata, C. parapsilosis and C. tropicalis. At the end of the incubation, 75 μL of supernatant from wells were transferred to a new plate and absorbance at 490 nm was measured. The percent metabolic activity was calculated as: Metabolic Activity (%)= (A490− A490background)/A490cell control− A490background ×100 where A490 , A490cell control , and A490background are the average absorbance values of wells containing a specific concentration of β-peptide, cell control wells without β-peptide, and media only wells, respectively. Experiments were performed in triplicate and repeated on at least two different days.

| SMILES | Hydrophobicity (HPLC Retention Time, min) [1] [min] | Peptide Concentration at 50% Hemolysis (HC50) [2] [µg/mL] | MIC, Biofilm Formation (C. albicans) [3] [µg/mL] |
| --- | --- | --- | --- |
| NCCCC[C@@H](CC(N)=O)NC(=O)[C@H]1CCCC[C@@H]1NC(=O)[C@H]1CCCC[C@@H]1NC(=O)C[C@H](CCCCN)NC(=O)[C@H]1CCCC[C@@H]1NC(=O)[C@H]1CCCC[C@@H]1NC(=O)C[C@H](CCCCN)NC(=O)[C@H]1CCCC[C@@H]1NC(=O)[C@H]1CCCC[C@@H]1N [Peptide 6] | 23.1 ± 0.2 | – | – |
| CC[C@@H](CC(=O)N[C@@H](CCCCN)CC(N)=O)NC(=O)[C@H]1CCCC[C@@H]1NC(=O)C[C@H](CCCCN)NC(=O)C[C@H](CC)NC(=O)[C@H]1CCCC[C@@H]1NC(=O)C[C@H](CCCCN)NC(=O)C[C@H](CC)NC(=O)[C@H]1CCCC[C@@H]1N [Peptide 2] | 22.5 ± 0.2 | – | 64 |
| NCCCC[C@@H](CC(N)=O)NC(=O)C[C@H](Cc1ccccc1)NC(=O)[C@H]1CCCC[C@@H]1NC(=O)C[C@H](CCCCN)NC(=O)C[C@H](Cc1ccccc1)NC(=O)[C@H]1CCCC[C@@H]1NC(=O)C[C@H](CCCCN)NC(=O)C[C@H](Cc1ccccc1)NC(=O)[C@H]1CCCC[C@@H]1N [Peptide 8] | 26.2 ± 0.2 | – | 8 |
| C[C@@H](CC(=O)N[C@@H](CCCCN)CC(N)=O)NC(=O)[C@H]1CCCC[C@@H]1NC(=O)C[C@H](CCCCN)NC(=O)C[C@H](C)NC(=O)[C@H]1CCCC[C@@H]1NC(=O)C[C@H](CCCCN)NC(=O)C[C@H](C)NC(=O)[C@H]1CCCC[C@@H]1N [Peptide 1] | 19.3 ± 0.1 | – | – |
| N=C(N)NCCC[C@@H](CC(N)=O)NC(=O)[C@H]1CCCC[C@@H]1NC(=O)[C@H]1CCCC[C@@H]1NC(=O)C[C@H](CCCNC(=N)N)NC(=O)[C@H]1CCCC[C@@H]1NC(=O)[C@H]1CCCC[C@@H]1NC(=O)C[C@H](CCCNC(=N)N)NC(=O)[C@H]1CCCC[C@@H]1NC(=O)[C@H]1CCCC[C@@H]1NC(=O)C[C@@H](N)Cc1ccc(O)cc1 [Peptide 15] | 24.6 ± 0.2 | 73 ± 40 | – |
| CC(C)[C@@H](CC(=O)N[C@@H](CCCNC(=N)N)CC(N)=O)NC(=O)[C@H]1CCCC[C@@H]1NC(=O)C[C@H](CCCNC(=N)N)NC(=O)C[C@@H](NC(=O)[C@H]1CCCC[C@@H]1NC(=O)C[C@H](CCCNC(=N)N)NC(=O)C[C@@H](NC(=O)[C@H]1CCCC[C@@H]1N)C(C)C)C(C)C [Peptide 5] | 25.4 ± 0.1 | – | 8 |
| CC[C@@H](CC(=O)N[C@@H](CCCNC(=N)N)CC(N)=O)NC(=O)[C@H]1CCCC[C@@H]1NC(=O)C[C@H](CCCNC(=N)N)NC(=O)C[C@H](CC)NC(=O)[C@H]1CCCC[C@@H]1NC(=O)C[C@H](CCCNC(=N)N)NC(=O)C[C@H](CC)NC(=O)[C@H]1CCCC[C@@H]1N [Peptide 3] | 23.2 ± 0.1 | – | 32 |
| N=C(N)NCCC[C@@H](CC(N)=O)NC(=O)[C@H]1CCCC[C@@H]1NC(=O)[C@H]1CCCC[C@@H]1NC(=O)C[C@H](CCCNC(=N)N)NC(=O)[C@H]1CCCC[C@@H]1NC(=O)[C@H]1CCCC[C@@H]1NC(=O)C[C@H](CCCNC(=N)N)NC(=O)[C@H]1CCCC[C@@H]1NC(=O)[C@H]1CCCC[C@@H]1N [Peptide 7] | 23.8 ± 0.1 | – | 16 |

The next lines start with results.

| Hydrophobicity (HPLC Retention Time, min) [1] [min] | SMILES | Peptide Concentration at 50% Hemolysis (HC50) [2] [µg/mL] | MIC, Biofilm Formation (C. albicans) [3] [µg/mL] |
| --- | --- | --- | --- |
| 25.7 ± 0.1 | CC(C)[C@@H](CC(=O)N[C@@H](CCCCN)CC(=O)N[C@H]1CCCC[C@@H]1C(=O)N[C@H](CC(=O)N[C@@H](CCCCN)CC(=O)N[C@H]1CCCC[C@@H]1C(=O)N[C@H](CC(=O)N[C@@H](CCCCN)CC(N)=O)C(C)C)C(C)C)NC(=O)[C@H]1CCCC[C@@H]1NC(=O)C[C@@H](N)Cc1ccc(O)cc1 [Peptide 12] | 12 ± 6 | – |
| 27.4 ± 0.2 | NCCCC[C@@H](CC(N)=O)NC(=O)C[C@H](Cc1ccccc1)NC(=O)[C@H]1CCCC[C@@H]1NC(=O)C[C@H](CCCCN)NC(=O)C[C@H](Cc1ccccc1)NC(=O)[C@H]1CCCC[C@@H]1NC(=O)C[C@H](CCCCN)NC(=O)C[C@H](Cc1ccccc1)NC(=O)[C@H]1CCCC[C@@H]1NC(=O)C[C@@H](N)Cc1ccc(O)cc1 [Peptide 16] | 3 ± 1 | – |
| 20.4 ± 0.2 | C[C@@H](CC(=O)N[C@@H](CCCCN)CC(=O)N[C@H]1CCCC[C@@H]1C(=O)N[C@@H](C)CC(=O)N[C@@H](CCCCN)CC(=O)N[C@H]1CCCC[C@@H]1C(=O)N[C@@H](C)CC(=O)N[C@@H](CCCCN)CC(N)=O)NC(=O)[C@H]1CCCC[C@@H]1NC(=O)C[C@@H](N)Cc1ccc(O)cc1 [Peptide 9] | > 400 | – |
| 23.5 ± 0.1 | CC[C@@H](CC(=O)N[C@@H](CCCCN)CC(=O)N[C@H]1CCCC[C@@H]1C(=O)N[C@@H](CC)CC(=O)N[C@@H](CCCCN)CC(=O)N[C@H]1CCCC[C@@H]1C(=O)N[C@@H](CC)CC(=O)N[C@@H](CCCCN)CC(N)=O)NC(=O)[C@H]1CCCC[C@@H]1NC(=O)C[C@@H](N)Cc1ccc(O)cc1 [Peptide 10] | 149 ± 20 | – |
| 24.2 ± 0.1 | CC[C@@H](CC(=O)N[C@@H](CCCNC(=N)N)CC(=O)N[C@H]1CCCC[C@@H]1C(=O)N[C@@H](CC)CC(=O)N[C@@H](CCCNC(=N)N)CC(=O)N[C@H]1CCCC[C@@H]1C(=O)N[C@@H](CC)CC(=O)N[C@@H](CCCNC(=N)N)CC(N)=O)NC(=O)[C@H]1CCCC[C@@H]1NC(=O)C[C@@H](N)Cc1ccc(O)cc1 [Peptide 11] | 79 ± 8 | – |
| 24.0 ± 0.2 | NCCCC[C@@H](CC(N)=O)NC(=O)[C@H]1CCCC[C@@H]1NC(=O)[C@H]1CCCC[C@@H]1NC(=O)C[C@H](CCCCN)NC(=O)[C@H]1CCCC[C@@H]1NC(=O)[C@H]1CCCC[C@@H]1NC(=O)C[C@H](CCCCN)NC(=O)[C@H]1CCCC[C@@H]1NC(=O)[C@H]1CCCC[C@@H]1NC(=O)C[C@@H](N)Cc1ccc(O)cc1 [Peptide 14] | 106 ± 37 | – |
| 26.5 ± 0.2 | CC(C)[C@@H](CC(=O)N[C@@H](CCCNC(=N)N)CC(=O)N[C@H]1CCCC[C@@H]1C(=O)N[C@H](CC(=O)N[C@@H](CCCNC(=N)N)CC(=O)N[C@H]1CCCC[C@@H]1C(=O)N[C@H](CC(=O)N[C@@H](CCCNC(=N)N)CC(N)=O)C(C)C)C(C)C)NC(=O)[C@H]1CCCC[C@@H]1NC(=O)C[C@@H](N)Cc1ccc(O)cc1 [Peptide 13] | 11 ± 2 | – |
